Results reported in PubChem BioAssay AID248 (DTP/NCI, 2004).
Inconclusive results and toxic doses are left out. Cut-off read from the data, not from the text of the source: active = T/C of 150% or more; inactive = T/C below 125%.

Test system: L1210 leukemia ip in BDF1 mice, survival T/C
Assay: NCI In Vivo Anticancer Drug Screen. Data for tumor model L1210 Leukemia (intraperitoneal) in B6D2F1 (BDF1) mice
Settings: endpoint: mean survival time, higher = longer survival
In short: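 Each compound was tested against a transplantable tumor grown in mice. The endpoint was survival, with treated animals benchmarked against vehicle controls as a simple ratio.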

[1] = dose: 100.0 mg/kg/injection, schedule: Q01DX001 (ip), vehicle: carboxymethylcellulose (CMC)
[2] = dose: 200.0 mg/kg/injection, schedule: Q01DX001 (ip), vehicle: carboxymethylcellulose (CMC)
[3] = dose: 100.0 mg/kg/injection, schedule: Q01DX009 (ip), vehicle: Klucel (hydroxypropylcellulose) (HPC)
[4] = dose: 200.0 mg/kg/injection, schedule: Q01DX009 (ip), vehicle: Klucel (hydroxypropylcellulose) (HPC)
[5] = dose: 400.0 mg/kg/injection, schedule: Q01DX009 (ip), vehicle: Klucel (hydroxypropylcellulose) (HPC)
[6] = dose: 100.0 mg/kg/injection, schedule: Q01DX009 (ip), vehicle: saline with Tween-80

Measured: T/C

Ic1ccccc1C[N+]12CN3CN(CN(C3)C1)C2
inactive: dose: 15.0 mg/kg/injection, schedule: Q01DX015 (ip), vehicle: carboxymethylcellulose (CMC) 101 % of control | dose: 30.0 mg/kg/injection, schedule: Q01DX015 (ip), vehicle: carboxymethylcellulose (CMC) 92 % of control | dose: 60.0 mg/kg/injection, schedule: Q01DX015 (ip), vehicle: carboxymethylcellulose (CMC) 92 % of control | dose: 100.0 mg/kg/injection, schedule: Q01DX001 (ip), vehicle: acetone 101 % of control | dose: 100.0 mg/kg/injection, schedule: Q01DX009 (ip), vehicle: acetone 96 % of control | dose: 100.0 mg/kg/injection, schedule: Q04DX003 (ip), vehicle: acetone 100 % of control | dose: 120.0 mg/kg/injection, schedule: Q01DX015 (ip), vehicle: carboxymethylcellulose (CMC) 103 % of control | dose: 200.0 mg/kg/injection, schedule: Q01DX001 (ip), vehicle: acetone 101 % of control | dose: 200.0 mg/kg/injection, schedule: Q01DX009 (ip), vehicle: acetone 94 % of control | dose: 200.0 mg/kg/injection, schedule: Q04DX003 (ip), vehicle: acetone 100 % of control | dose: 400.0 mg/kg/injection, schedule: Q01DX001 (ip), vehicle: acetone 94 % of control | dose: 400.0 mg/kg/injection, schedule: Q04DX003 (ip), vehicle: acetone 93 % of control

N#CCCOCC(OCCC#N)C(COCCC#N)OCCC#N (stereo unspecified)
inactive: dose: 50.0 mg/kg/injection, schedule: Q01DX001 (ip), vehicle: carboxymethylcellulose (CMC) 95 % of control | [1] 97 % of control | [2] 97 % of control | dose: 400.0 mg/kg/injection, schedule: Q01DX001 (ip), vehicle: carboxymethylcellulose (CMC) 92 % of control

S=C(Nc1cccc2ccccc12)N1CCOCC1
inactive: [3] 94 % of control | [4] 120 % of control | [5] 96 % of control

CCCN(C)/N=N/c1[nH]ncc1C(N)=O
active: dose: 66.0 mg/kg/injection, schedule: Q01DX009 (ip), vehicle: saline with Tween-80 178 % of control | [6] 188 % of control
inactive: dose: 100.0 mg/kg/injection, schedule: Q01DX001 (ip), vehicle: saline with Tween-80 113 % of control | dose: 200.0 mg/kg/injection, schedule: Q01DX001 (ip), vehicle: saline with Tween-80 115 % of control | dose: 200.0 mg/kg/injection, schedule: Q01DX009 (ip), vehicle: saline with Tween-80 120 % of control | dose: 200.0 mg/kg/injection, schedule: Q04DX003 (ip), vehicle: saline with Tween-80 116 % of control | dose: 400.0 mg/kg/injection, schedule: Q01DX001 (ip), vehicle: saline with Tween-80 109 % of control | dose: 400.0 mg/kg/injection, schedule: Q04DX003 (ip), vehicle: saline with Tween-80 94 % of control

COc1ccc(C(C#N)=C2C=CC(=NO)C=C2)cc1
inactive: [6] 94 % of control

CCCCC(CC)CCC(O)CC(C)C (stereo unspecified)
inactive: dose: 50.0 mg/kg/injection, schedule: Q04DX003 (ip), vehicle: Klucel (hydroxypropylcellulose) (HPC) 91 % of control | [3] 104 % of control | dose: 100.0 mg/kg/injection, schedule: Q04DX003 (ip), vehicle: Klucel (hydroxypropylcellulose) (HPC) 92 % of control | [4] 101 % of control | dose: 200.0 mg/kg/injection, schedule: Q04DX003 (ip), vehicle: Klucel (hydroxypropylcellulose) (HPC) 97 % of control | [5] 89 % of control | dose: 400.0 mg/kg/injection, schedule: Q04DX003 (ip), vehicle: Klucel (hydroxypropylcellulose) (HPC) 96 % of control

O=C(Nc1ccc(Cl)cc1[N+](=O)[O-])Oc1ccc(C2CCCCC2)cc1
inactive: [3] 93 % of control | [4] 89 % of control | [5] 88 % of control

COc1ccc(OC)c2c(=O)cc[nH]c12
inactive: [1] 103 % of control | [2] 94 % of control

O=C1CCc2c1cccc2[N+](=O)[O-]
inactive: dose: 100.0 mg/kg/injection, schedule: Q04DX002 (ip), vehicle: saline with Tween-80 102 % of control | dose: 200.0 mg/kg/injection, schedule: Q04DX002 (ip), vehicle: saline with Tween-80 102 % of control | dose: 400.0 mg/kg/injection, schedule: Q04DX002 (ip), vehicle: saline with Tween-80 102 % of control

NC(CCl)=NC1CN2CCC1CC2 (stereo unspecified)
inactive: dose: 25.0 mg/kg/injection, schedule: Q04DX002 (ip), vehicle: saline 101 % of control | dose: 50.0 mg/kg/injection, schedule: Q04DX002 (ip), vehicle: saline 90 % of control | dose: 100.0 mg/kg/injection, schedule: Q04DX002 (ip), vehicle: saline 102 % of control
